# From ChEMBL document CHEMBL1201862, “PubChem BioAssay data set” (2004)
#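 Assay format: 96-well plates, 48-hour exposure. GI50 = concentration required for 50% inhibition of growth.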 Activity calls are given as the source filed them. Rule as the data show it: active = GI50 up to about 1.1 µM and inactive = higher.
# Legend:
# Assay in all cases: inhibition of tumour cell growth, NCI panel, 48 h
# SNB-19 = system: SNB-19
# HCC 2998 = system: HCC 2998
# 786-0 = system: 786-0
# UACC-257 = system: UACC-257
# MDA-MB-435 = system: MDA-MB-435
# T47D = system: T47D
# TK-10 = system: TK-10
# UACC-62 = system: UACC-62
# A549 = system: A549
# DU-145 = system: DU-145
# CAKI-1 = system: CAKI-1
# HOP-92 = system: HOP-92
# OVCAR-5 = system: OVCAR-5
# OVCAR-3 = system: OVCAR-3
# SF-268 = system: SF-268
# IGROV-1 = system: IGROV-1
# CCRF-CEM = system: CCRF-CEM
# U-251 = system: U-251
# M14 = system: M14
# NCI-H23 = system: NCI-H23
SMILES,GI50 (SNB-19),GI50 (HCC 2998),GI50 (786-0),GI50 (UACC-257),GI50 (MDA-MB-435),GI50 (T47D),GI50 (TK-10),GI50 (UACC-62),GI50 (A549),GI50 (DU-145),GI50 (CAKI-1),GI50 (HOP-92),GI50 (OVCAR-5),GI50 (OVCAR-3),GI50 (SF-268),GI50 (IGROV-1),GI50 (CCRF-CEM),GI50 (U-251),GI50 (M14),GI50 (NCI-H23)
Nc1ccccc1.O=P(O)(O)c1ccccc1,> 100 µM (inactive),> 100 µM (inactive),> 100 µM (inactive),> 100 µM (inactive),> 100 µM (inactive),> 100 µM (inactive),> 100 µM (inactive),> 100 µM (inactive),> 100 µM (inactive),> 100 µM (inactive),> 100 µM (inactive),> 100 µM (inactive),> 100 µM (inactive),> 100 µM (inactive),> 100 µM (inactive),> 100 µM (inactive),> 100 µM (inactive),> 100 µM (inactive),> 100 µM (inactive),> 100 µM (inactive)
OCCCNc1[nH]cnc2nncc1-2,> 100 µM (inactive),> 100 µM (inactive),> 100 µM (inactive),> 100 µM (inactive),> 100 µM (inactive),> 100 µM (inactive),> 100 µM (inactive),> 100 µM (inactive),> 100 µM (inactive),> 100 µM (inactive),9.82 µM (inactive),> 100 µM (inactive),> 100 µM (inactive),> 100 µM (inactive),> 100 µM (inactive),> 100 µM (inactive),> 100 µM (inactive),> 100 µM (inactive),> 100 µM (inactive),> 100 µM (inactive)
COc1cc2ccc(C(=O)NCCCNC(=O)c3ccc4cc(OC)c(OC)cc4c3)cc2cc1OC,> 100 µM (inactive),> 100 µM (inactive),> 100 µM (inactive),> 100 µM (inactive),> 100 µM (inactive),> 100 µM (inactive),> 100 µM (inactive),> 100 µM (inactive),> 100 µM (inactive),> 100 µM (inactive),> 100 µM (inactive),> 100 µM (inactive),> 100 µM (inactive),> 100 µM (inactive),> 100 µM (inactive),> 100 µM (inactive),> 100 µM (inactive),> 100 µM (inactive),> 100 µM (inactive),> 100 µM (inactive)
O=C1c2cccnc2C(=O)c2c1nc1ccccc1c2-c1ccc2c3c(nc4ccccc42)C(=O)c2cccnc2-c13,1.84 µM (inactive),1.59 µM (inactive),0.417 µM (active),2.04 µM (inactive),1.87 µM (inactive),4.58 µM (inactive),2.76 µM (inactive),1.73 µM (inactive),2.17 µM (inactive),0.359 µM (active),1.75 µM (inactive),10.5 µM (inactive),6.43 µM (inactive),0.244 µM (active),0.52 µM (active),0.0728 µM (active),2.07 µM (inactive),1.75 µM (inactive),0.405 µM (active),1.06 µM (active)
C=C(C)C1CC2=C(C(=O)OC)C=C(O2)C(C(=C)C)[C@@H]2OC(=O)/C(=C\C1O)[C@H]2N(C)C (stereo not given in full),1.65 µM (inactive),14.7 µM (inactive),8.05 µM (inactive),20.9 µM (inactive),9.44 µM (inactive),11.7 µM (inactive),1.6 µM (inactive),14.5 µM (inactive),13.9 µM (inactive),12.1 µM (inactive),7.71 µM (inactive),6.53 µM (inactive),16.5 µM (inactive),12.6 µM (inactive),17 µM (inactive),6.04 µM (inactive),1.6 µM (inactive),15.7 µM (inactive),12.9 µM (inactive),13.1 µM (inactive)
O=C1/C(=C\c2ccc([N+](=O)[O-])cc2)Sc2scc(-c3ccc(O)c(O)c3)[n+]21,21.6 µM (inactive),4.97 µM (inactive),3.73 µM (inactive),6.87 µM (inactive),9.75 µM (inactive),12.8 µM (inactive),2.26 µM (inactive),5.61 µM (inactive),17.6 µM (inactive),13.5 µM (inactive),2.77 µM (inactive),6.4 µM (inactive),15.3 µM (inactive),2.51 µM (inactive),4.94 µM (inactive),5.11 µM (inactive),2.68 µM (inactive),6.4 µM (inactive),5.81 µM (inactive),14.9 µM (inactive)
CC(C)[Si](OC1=CCCCCC12C(=O)N(C)c1ccccc12)(C(C)C)C(C)C (stereo not given),14.9 µM (inactive),21.7 µM (inactive),17.7 µM (inactive),14.9 µM (inactive),25.1 µM (inactive),2.88 µM (inactive),29 µM (inactive),18.2 µM (inactive),19.8 µM (inactive),15 µM (inactive),16.5 µM (inactive),16.5 µM (inactive),16.9 µM (inactive),16.3 µM (inactive),18.4 µM (inactive),25.1 µM (inactive),17.1 µM (inactive),18.5 µM (inactive),23.3 µM (inactive),19.5 µM (inactive)
